Laboratory results: PMC12112586, “Inhibitory Effect of Fluralaner on GABA Receptor Subunit RDL of Bactrocera dorsalis” (Insects, 2025)

Assays:
[1] = molecular target: T1, BdRDL (GABA receptor subunit RDL) (Bactrocera dorsalis, UniProt A0ABM3JZQ9); assay: two-electrode voltage clamp in Xenopus oocytes, inhibition of GABA (EC50)-induced currents; assay type: cell-based
T1 construct: gene LOC105225059; full-length ORF, 596 amino acids (GenBank XM_049458762), homomeric receptor expressed in Xenopus oocytes
T1 sequence (A0ABM3JZQ9 1-596): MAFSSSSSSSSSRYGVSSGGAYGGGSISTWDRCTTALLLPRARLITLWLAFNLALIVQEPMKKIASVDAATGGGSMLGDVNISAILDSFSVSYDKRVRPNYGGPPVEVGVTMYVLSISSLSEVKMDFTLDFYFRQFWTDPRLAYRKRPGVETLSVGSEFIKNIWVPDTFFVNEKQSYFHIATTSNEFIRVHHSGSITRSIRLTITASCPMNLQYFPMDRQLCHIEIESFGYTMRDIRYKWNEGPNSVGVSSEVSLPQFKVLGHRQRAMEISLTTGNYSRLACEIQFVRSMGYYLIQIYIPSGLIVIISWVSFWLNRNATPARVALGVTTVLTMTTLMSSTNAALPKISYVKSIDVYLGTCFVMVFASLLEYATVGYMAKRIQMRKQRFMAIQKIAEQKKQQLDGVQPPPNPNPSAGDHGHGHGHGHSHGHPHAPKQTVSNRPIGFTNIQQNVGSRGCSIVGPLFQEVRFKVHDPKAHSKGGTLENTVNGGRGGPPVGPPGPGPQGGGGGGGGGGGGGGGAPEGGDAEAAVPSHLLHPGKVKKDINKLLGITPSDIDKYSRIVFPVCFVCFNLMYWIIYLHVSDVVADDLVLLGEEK

[2] = molecular target: T1, BdRDL (GABA receptor subunit RDL); assay: two-electrode voltage clamp in Xenopus oocytes, agonist-induced currents; assay type: cell-based

| Compound | IC50 [1] [µM] | EC50 [2] [µM] |
| --- | --- | --- |
| Cc1cc(C2=NOC(c3cc(Cl)cc(Cl)c3)(C(F)(F)F)C2)ccc1C(=O)NCC(=O)NCC(F)(F)F (racemic) [fluralaner] | 0.15 | – |
| NCCCC(=O)O [GABA] | – | 240 |
